Reference: patent US20070277254A1, “Method for Increasing Ploidy in a Plant” (priority 2003, published 2007)
Where two headings read alike, the source gives them in different places.

Experiments:
[1] = tested on: apical buds of budded plants; assay: Ploidy increase in buds treated with colchicine, stomata on leaves counted per unit area and compared to the parent; type: in vivo; conditions: twice daily for five days minimum
Experimental: Firstly, the plants are budded (on a selected root stock), then they are held in a dormant state and the appropriate chill requirement is given in a cool room (if required). The plants are then removed to a warm environment to prime the bud (which is still dormant). This is continued up to the point at which dormancy is “broken”, cell division is commenced. The bud is then wrapped in absorbent substance, the absorbent material is injected with a 1% aqueous solution of the colchicine drug. Note that this is 10× higher concentration than normal treatments. A plastic surround is used to enclose the bud, to keep it moist but exposed to the drug. This treatment is repeated twice daily for five days minimum.
In a next step, to determine whether a ploidy increase has resulted, the stomata on leaves are counted per unit area and compared to the parent. Unexpectedly, it is observed that between 10-20% of the apical buds have their ploidy level increased as a result of this process (compared with only approx 1% in normal techniques). Thus, for example, in citrus, plant leaves become shorter, thicker, wider and oil glands become more prominent.

[2] = tested on: apical buds of budded plants; conditions: normal techniques (comparison; about 10x lower colchicine concentration); cited from earlier work

Question: Which “apical buds having their ploidy level increased” value ([1]; 1% aqueous solution of colchicine injected into absorbent wrap around bud at break of dormancy) does the source give for `COc1cc2c(c(OC)c1OC)-c1ccc(OC)c(=O)cc1[C@@H](NC(C)=O)CC2` [colchicine] here?
Answer: 10-20%

Question: What about the “effect on original growing point (main bud)” value ([1]; 1% aqueous solution of colchicine) of the same compound?
Answer: generally killed

Question: What about the “apical buds having their ploidy level increased” value [2] of the same compound?
Answer: approx 1%
